According to the supplement of paper PMC10307832:

How the values were obtained:
Test in all cases: relative viability (nuclei count vs DMSO), 5 days (fraction); higher = more cells survive
[1] = compound: C1/C(=C\C2=CC=CS2)/C(=O)/C(=C/C3=CC=CS3)/C1
Method in brief: (§1)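 A plate was accepted only when its control CV was below 25% and the cells had doubled at least once. Viability is defined from nuclear counts as treated wells divided by vehicle wells, with the median taken across plates. That median covers lung cancer cell lines grown in 1536-well plates, dosed by pinning at five √10-spaced library-drug concentrations, and counted in MetaXpress from 4× Hoechst images after 5 days.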

[2] = compound: C1=CC(=CC=C1C2=CC(=C(S2)NC(=O)N)C(=O)N)F [TPCA-1]
Method in brief: as §1

[3] = compound: C[C@]12O[C@H](C[C@]1(O)CO)n1c3ccccc3c3c4c(c5c6ccccc6n2c5c31)CNC4=O [Lestaurtinib]
Method in brief: as §1

[4] = compound: C1=CC(=CC=C1C2=CC(=C(S2)NC(=O)N)C(=O)N)F [TPCA-1] + C[C@@H](Oc1cc(-c2cnn(C3CCNCC3)c2)cnc1N)c1c(Cl)ccc(F)c1Cl [Crizotinib] (partner 1 µM)
Method in brief: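 A single step with final 0.05% Triton X-100, 1% formaldehyde and 1 ug/ml Hoechst fixed the cells and stained nuclei 5 days after treatment. Lung cancer cell lines in 1536-well plates had been treated by pin tool the day after seeding with one drug alone or a fixed anchor-drug dose plus five library-drug doses (not always all listed) in √10 steps, and nuclei were counted on 4× images. Relative viability is the ratio of nuclei in treated wells to nuclei in vehicle wells, taken as the median of duplicate plates.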

Cell Line	relative viability ([1]; 0.2 µM)	relative viability ([1]; 0.6325 µM)	relative viability ([1]; 2 µM)	relative viability ([1]; 6.325 µM)	relative viability ([1]; 20 µM)	relative viability ([2]; 0.04 µM)	relative viability ([2]; 0.1265 µM)	relative viability ([2]; 0.4 µM)	relative viability ([2]; 1.265 µM)	relative viability ([2]; 4 µM)	relative viability ([3]; 0.005 µM)	relative viability ([3]; 0.01581 µM)	relative viability ([3]; 0.05 µM)	relative viability ([3]; 0.1581 µM)	relative viability ([3]; 0.5 µM)	relative viability ([4]; first compound 0.04 µM)	relative viability ([4]; first compound 0.1265 µM)	relative viability ([4]; first compound 0.4 µM)	relative viability ([4]; first compound 1.265 µM)	relative viability ([4]; first compound 4 µM)
201T	1.01	0.963	1.06	0.935	0.935	1.02	0.951	1	1.01	0.835	1.04	1.08	0.928	1.04	0.678	1.04	0.998	1.08	1.02	1.03
A549	0.987	0.983	1.01	0.772	0.931	1.05	0.956	0.955	0.871	0.782	1.04	1	0.791	0.521	0.162	0.898	0.748	0.773	0.522	0.331
A-427	1.03	1.05	1.05	0.954	1.01	1.1	0.94	1.11	0.89	0.312	1.05	1.13	0.792	0.435	0.199	0.856	0.817	1.09	0.879	0.625
ABC-1	0.87	1.03	1.13	0.842	0.888	1.02	0.798	0.982	0.771	0.638	0.976	1.01	0.79	0.735	0.327	1.38	1.05	0.957	0.733	0.569
BEN	0.935	1	1.11	0.848	0.934	1.01	0.873	1.05	1.08	0.774	0.993	1.11	0.888	0.8	0.278	0.81	0.722	0.713	0.979	0.685
CAL-12T	1.04	1.07	0.978	0.859	0.994	0.989	0.925	1.05	0.86	0.468	0.962	1.17	0.968	0.788	0.61	0.597	0.588	0.675	0.717	0.381
COR-L23	1.03	1.05	1	0.865	0.947	1.03	0.924	0.968	0.986	0.857	1.08	1.13	0.633	0.829	0.166	0.686	0.666	0.715	0.532	0.323
COR-L 105	0.989	0.895	0.956	0.71	0.836	1	0.9	0.99	0.806	0.615	0.897	0.978	0.808	0.572	0.313	0.812	1.14	0.751	0.629	0.347
Calu-6	1.06	1.05	0.993	0.944	0.985	1.06	0.95	0.982	1	0.72	1.05	0.999	0.621	0.518	0.204	0.861	0.789	0.767	0.669	0.373
ChaGo-K-1	0.997	1.02	1.02	0.787	0.535	1.09	0.927	0.965	0.925	0.637	1	1.08	0.906	1.01	0.437	1.2	1.04	1.17	0.836	0.608
EBC-1	1.08	1.07	1.01	0.888	0.972	1.15	0.975	0.991	0.973	0.988	1.04	1.15	0.818	0.756	0.428	0.206	0.175	0.201	0.195	0.222
EKVX	0.984	0.928	1.15	0.772	0.961	1.05	0.829	1.04	0.815	0.737	1	1.09	1.05	1.01	0.663	0.979	0.777	1.04	0.97	0.738
EMC-BAC-2	0.904	1.06	0.978	0.916	1.07	1.01	0.979	1.05	0.819	0.392	0.925	1.04	0.73	0.417	0.357	0.737	0.836	0.788	0.755	0.663
EPLC-272H	1.13	0.925	1.01	0.833	0.786	1.06	0.881	1.12	0.805	0.676	0.801	0.748	0.607	0.444	0.304	1.02	0.93	0.868	0.888	0.58
H3255	1.03	1.04	0.977	0.899	0.972	1.08	0.898	0.916	0.816	0.783	1.03	1.08	0.935	0.744	0.511	0.815	0.882	0.863	0.674	0.848
HARA	1.11	0.94	1.03	0.853	0.945	1.05	0.996	1.06	1.14	0.476	1.09	1.22	1.08	0.619	0.499	0.985	0.995	1.11	1.01	0.56
